Laboratory results published in US10858360B2, “Tricyclic gyrase inhibitors” (priority 2011, dated 2020).
≈ marks a conversion by molar mass, not a printed value. Read-outs that look alike come from different tables or passages of the source.

Tests used:
S. aureus ATCC 13709 = experiment: MIC, S. aureus ATCC 13709 (Alamar Blue broth microdilution); assay type: cell-based; details: for MIC: Staphylococcus aureus, ATCC13709, S. aureus
E. coli ATCC 25922 = experiment: MIC, E. coli ATCC 25922; assay type: cell-based; details: for MIC: Escherichia coli, ATCC25922, E. coli
[1] = Alamar Blue read after overnight incubation at 35° C.
[2] = S. aureus, Alamar Blue read after overnight incubation at 35° C.
[3] = E. coli, Alamar Blue read after overnight incubation at 35° C.

Cc1cccc2c1[nH]c1nc(Sc3cnc4nccnc4c3)nc(N3CC4C(N)C4C3)c12 (stereo not shown) [1.7]
MIC (S. aureus ATCC 13709; [1]): 4 µg/mL (≈ 9.08 µM) | MIC (E. coli ATCC 25922; [1]): > 32 µg/mL

CNc1cccc2c1[nH]c1nc(Oc3cncnc3)nc(N3CCC4(CC4N)C3)c12 (stereo not shown) [3.41]
MIC (S. aureus ATCC 13709; [1]): ≤ 0.5 µg/mL | MIC (E. coli ATCC 25922; [1]): ≤ 0.5 µg/mL

CNc1cccc2c1[nH]c1nc(Sc3cnc4ccc[n+]([O-])c4c3)nc(N3CC4C(N)C4C3)c12 (stereo not shown) [1.13]
MIC Sa (S. aureus ATCC 13709; [2]): ≤0.5 µg/mL | MIC (E. coli ATCC 25922; [1]): ≤ 0.5 µg/mL

CNc1ncnc2c1[nH]c1nc(Oc3cnc(C)nc3)nc(N3CC(N)C4(CC4)C3)c12 (stereo not shown) [7.08]
MIC (S. aureus ATCC 13709; [1]): 16 µg/mL (≈ 38.2 µM) | MIC (E. coli ATCC 25922; [1]): > 64 µg/mL

CNc1cc(F)cc2c1[nH]c1nc(Oc3cnc(C)nc3)nc(N3CC4(CC(N)C4)C3)c12 [4.153]
MIC Sa (S. aureus ATCC 13709; [2]): ≤0.5 µg/mL | MIC Ec (E. coli ATCC 25922; [3]): 2 µg/mL (≈ 4.6 µM)

CNc1cc(F)cc2c1[nH]c1nc(Oc3cnc(C)nc3)nc(N3CC4C(N)CC4(C)C3)c12 (stereo not shown) [4.150]
MIC Sa (S. aureus ATCC 13709; [2]): ≤0.5 µg/mL | MIC Ec (E. coli ATCC 25922; [3]): 1 µg/mL (≈ 2.23 µM)

CNc1cc(F)cc2c1[nH]c1nc(Oc3cnc(C)nc3)nc(N3CC4CNCCC43)c12 (stereo not shown) [4.082]
MIC Sa (S. aureus ATCC 13709; [2]): 1 µg/mL (≈ 2.3 µM) | MIC Ec (E. coli ATCC 25922; [3]): 8 µg/mL (≈ 18.4 µM)

CNc1cc(C)cc2c1[nH]c1nc(Oc3cncnc3)nc(N3CC4C(N)C4C3)c12 (stereo not shown) [6.27]
MIC Sa (S. aureus ATCC 13709): ≤0.5 µg/mL | MIC Ec (E. coli ATCC 25922): 1 µg/mL (≈ 2.48 µM)

CNc1cc(F)cc2c1[nH]c1nc(Oc3cnc4c(c3)ncn4C3CC3)nc(N3CC(N)C4(CC4)C3)c12 (stereo not shown) [4.362]
MIC Sa (S. aureus ATCC 13709; [2]): ≤0.5 µg/mL | MIC Ec (E. coli ATCC 25922; [3]): 1 µg/mL (≈ 2 µM)

CNc1cccc2c1[nH]c1nc(Oc3cncc(C(N)=O)c3)nc(N3CC4C(N)C4C3)c12 (stereo not shown) [3.19]
MIC (S. aureus ATCC 13709; [1]): 8 µg/mL (≈ 18.6 µM) | MIC (E. coli ATCC 25922; [1]): 32 µg/mL (≈ 74.3 µM)

CNc1cccc2c1[nH]c1nc(Oc3ccc(C(=O)O)nc3)nc(N3CC4C(N)C4C3)c12 (stereo not shown) [3.22]
MIC (S. aureus ATCC 13709; [1]): 16 µg/mL (≈ 37.1 µM) | MIC (E. coli ATCC 25922; [1]): 64 µg/mL (≈ 148 µM)

CNc1cc(F)cc2c1[nH]c1nc(Oc3cnc(CO)nc3)nc(N3CC4CC(N)C4C3)c12 (stereo not shown) [4.386]
MIC (S. aureus ATCC 13709; [1]): ≤ 0.5 µg/mL | MIC (E. coli ATCC 25922; [1]): ≤ 0.5 µg/mL

CNc1cc(F)cc2c1[nH]c1nc(Oc3ccc4c(c3)C(=O)NC4)nc(N3CC4(CCC4N)C3)c12 (stereo not shown) [4.270]
MIC Sa (S. aureus ATCC 13709; [2]): ≤0.5 µg/mL | MIC Ec (E. coli ATCC 25922; [3]): 2 µg/mL (≈ 4.22 µM)

CNc1cccc2c1[nH]c1nc(Oc3cncnc3)nc(N3C[C@@H](N)C4(CC4)C3)c12 [3.46]
MIC (S. aureus ATCC 13709; [1]): 2 µg/mL (≈ 4.97 µM) | MIC (E. coli ATCC 25922; [1]): 4 µg/mL (≈ 9.94 µM)

CNc1cc(F)cc2c1[nH]c1nc(Oc3cnc(C)nc3)nc(N3CC4CC(N)C4C3)c12 (stereo not shown) [4.111]
MIC Sa (S. aureus ATCC 13709; [2]): ≤0.5 µg/mL | MIC Ec (E. coli ATCC 25922; [3]): ≤0.5 µg/mL

CNc1cc(F)cc2c1[nH]c1nc(Oc3cnc(N4CC(C)(N)C4)nc3)nc(N3CC4C(N)C4C3)c12 (stereo not shown) [4.339]
MIC Sa (S. aureus ATCC 13709; [2]): ≤0.5 µg/mL | MIC Ec (E. coli ATCC 25922; [3]): 1 µg/mL (≈ 2.04 µM)

CNc1cc(F)cc2c1[nH]c1nc(Oc3cnc(N)nc3)nc(N3CC(NC(=O)CN)C4(CC4)C3)c12 (stereo not shown) [4.182]
MIC Sa (S. aureus ATCC 13709; [2]): 2 µg/mL (≈ 4.06 µM) | MIC Ec (E. coli ATCC 25922; [3]): 16 µg/mL (≈ 32.5 µM)

CNc1cc(F)cc2c1[nH]c1nc(Oc3cncc(C#N)c3)nc(N3CCC4(CC4N)C3)c12 (stereo not shown) [4.052]
MIC (S. aureus ATCC 13709; [1]): ≤ 0.5 µg/mL | MIC (E. coli ATCC 25922; [1]): ≤ 0.5 µg/mL

CNc1cc(F)cc2c1[nH]c1nc(Oc3cnc4cccnc4c3)nc(N3C[C@H](N)C4(CC4)C3)c12 [4.038]
MIC (S. aureus ATCC 13709; [1]): ≤ 0.5 µg/mL | MIC (E. coli ATCC 25922; [1]): ≤ 0.5 µg/mL

CNc1cc(F)cc2c1[nH]c1nc(Oc3cnc(N4CCC4)nc3)nc(N3C[C@H](N)C4(CC4)C3)c12 [4.297]
MIC (S. aureus ATCC 13709; [1]): ≤ 0.5 µg/mL | MIC (E. coli ATCC 25922; [1]): ≤ 0.5 µg/mL

CNc1cc(F)cc2c1[nH]c1nc(Oc3cnc(SC)nc3)nc(N3C[C@H](N)C4(CC4)C3)c12 [4.194]
MIC (S. aureus ATCC 13709; [1]): ≤ 0.5 µg/mL | MIC (E. coli ATCC 25922; [1]): ≤ 0.5 µg/mL

CNc1cc(F)cc2c1[nH]c1nc(Sc3cnc4ccc[n+]([O-])c4c3)nc(N3CC(N)C4(CC4)C3)c12 (stereo not shown) [1.63]
MIC (S. aureus ATCC 13709; [1]): ≤ 0.5 µg/mL | MIC (E. coli ATCC 25922; [1]): ≤ 0.5 µg/mL

CNc1cccc2c1[nH]c1nc(Sc3cnc4cccnc4c3)nc(N3CC4CCCNC4C3)c12 (stereo not shown) [1.28]
MIC (S. aureus ATCC 13709; [1]): 4 µg/mL (≈ 8.29 µM) | MIC (E. coli ATCC 25922; [1]): 16 µg/mL (≈ 33.2 µM)

CNc1cc(F)cc2c1[nH]c1nc(Oc3cnc(C)nc3)nc(N3C4CCC3C(N)C4)c12 (stereo not shown) [4.095]
MIC Sa (S. aureus ATCC 13709; [2]): 2 µg/mL (≈ 4.6 µM) | MIC Ec (E. coli ATCC 25922; [3]): 8 µg/mL (≈ 18.4 µM)

CNc1cc(F)cc2c1[nH]c1nc(Oc3cnc(C)nc3)nc(-c3cccc(CN)c3F)c12 [4.422]
MIC (S. aureus ATCC 13709; [1]): 4 µg/mL (≈ 8.94 µM) | MIC (E. coli ATCC 25922; [1]): 16 µg/mL (≈ 35.8 µM)

CNc1cc(F)cc2c1[nH]c1nc(Oc3cncc(Cl)c3)nc(N3CC4C(N)C4C3)c12 (stereo not shown) [4.272]
MIC (S. aureus ATCC 13709; [1]): ≤ 0.5 µg/mL | MIC (E. coli ATCC 25922; [1]): ≤ 0.5 µg/mL

CNc1cc(F)cc2c1[nH]c1nc(Oc3cncc(C#N)c3)nc(N3CC4(CCC4N)C3)c12 (stereo not shown) [4.054]
MIC Sa (S. aureus ATCC 13709; [2]): ≤0.5 µg/mL | MIC Ec (E. coli ATCC 25922; [3]): ≤0.5 µg/mL

CNc1cccc2c1[nH]c1nc(Oc3cncc(F)c3)nc(N3CC4CNC4C3)c12 (stereo not shown) [3.7]
MIC (S. aureus ATCC 13709; [1]): 1 µg/mL (≈ 2.47 µM) | MIC (E. coli ATCC 25922; [1]): 4 µg/mL (≈ 9.87 µM)

CNc1cc(F)c(F)c2c1[nH]c1nc(Oc3cnc(C)nc3)nc(N3CC(N)C4(CC4)C3)c12 (stereo not shown) [5.05]
MIC Sa (S. aureus ATCC 13709; [2]): ≤0.5 µg/mL | MIC Ec (E. coli ATCC 25922; [3]): ≤0.5 µg/mL

CNc1cc(F)cc2c1[nH]c1nc(Oc3cnc(CCO)nc3)nc(N3CC4C[C@@H](N)C4C3)c12 (stereo partly shown) [4.429]
MIC Sa (S. aureus ATCC 13709; [2]): ≤0.5 µg/mL | MIC Ec (E. coli ATCC 25922; [3]): 1 µg/mL (≈ 2.15 µM)

CNc1cc(F)cc2c1[nH]c1nc(Oc3ccc4c(c3)ncn4C)nc(N3CC4C[C@@H](N)C4C3)c12 (stereo partly shown) [4.358]
MIC (S. aureus ATCC 13709; [1]): ≤ 0.5 µg/mL | MIC (E. coli ATCC 25922; [1]): 4 µg/mL (≈ 8.47 µM)

CNc1cc(F)cc2c1[nH]c1nc(Oc3cnc(C)nc3)nc(N[C@@H]3CC4CC3CN4)c12 (stereo partly shown) [4.155]
MIC (S. aureus ATCC 13709; [1]): 2 µg/mL (≈ 4.6 µM) | MIC (E. coli ATCC 25922; [1]): > 16 µg/mL
